Source: publication PMC7417534, “Cytochrome P450 inhibition potential and initial genotoxic evaluation of 14-O-[(4,6-diaminopyrimidine-2-yl)thioacetyl] mutilin” (Scientific Reports, 2020)

What was measured:
[1] = MTT cytotoxicity assay on Hep G2 cells; type: cell-based, human; settings: human, DPTM 4.98 mM, read-out: cell viability
Method: (§1) Intrinsic toxicity of DPTM was conducted as described in the literature[36]–[38] with some modifications. […] After proliferating to logarithmic growth phase at 37 °C under 5% CO2, cells were seeded to a new 96-well plate with a density of […] and cultured for 24 h at the same condition. The media were replaced with 100 μL of serial dilutions of DPTM (10 mg DPTM was dissolved in 1 mL 1% DMSO to a solution and then diluted two-fold with distilled water to provide 19.91, 9.96, 4.98, 2.49, 1.25, 0.62, 0.31, 0.16 and 0.08 mM serial dilutions). The blank group only used 1% DMSO to replace the media. The obtained mixture was incubated for 24 h. After that, all media in cells were removed and 20 μL of MTT reagent was added for an additional 4 h. Then, supernatant fraction was removed and 100 μL dimethyl sulfoxide (DMSO) was added, followed by incubation at 37 °C for 15 min. The absorbance of each well was determined by a spectrophotometer at dual wavelengths of 570 and 279 nm for the background. The viability percentage was calculated by the following formula: cell viability % = (ODsample − ODblank/ODcontrol − ODblank) × 100. A sigmoid-shaped curve was fitted to the data, and the IC50 was calculated by fitting the Hill equation to the data with nonlinear regression (least-squares best fit modelling) using GraphPad Prism 4 (GraphPad Software Inc., San Diego, USA). […]

Hep G2 cells = test: MTT cytotoxicity assay on Hep G2 cells; type: cell-based, human; settings: Homo sapiens, HepG2, 24 h incubation, read-out: IC50 value, cell viability (MTT)
Method: as §1

CYP3A = test: Cocktail CYP inhibition in rat liver microsomes, CYP3A (dapsone); type: in vitro ADME; settings: probe dapsone (55 μM), cocktail method, read-out: IC50 values, CYP3A in RLMs
Method: We used the cocktail method to study the inhibition activities of DPTM against CYP enzymes in RLMs and HLMs with slight modification. DPTM (250 μmol) was dissolved in 1.25 mL methanol to a solution and then diluted with methanol and water to 2, 10, 20, 100, 200, 400, 1,000 and 2000 μM, respectively. The obtained serial dilutions (10 μL) were added to the incubation mixtures (200 μL total volume), containing 100 μL RLMs or HLMs (final concentration was 5 μg/μL, respectively), 10 μL glucose-6-phosphate (final concentration was 1 mM), 10 μL glucose-6-phosphate dehydrogenase (final concentration was 0.1 U/L), 20 μL potassium phosphate buffer (final concentration was 0.01 M) and 20 μL MgCl2 (final concentration was 2 mM), to give the final concentrations were 0.1, 0.5, 1, 5 10, 20, 50, and 100 μM, respectively. For the groups that in the absence of DPTM, 10 μL methanol (1%) replaced the DPTM and was added to the incubation mixtures. […] The final concentration of methanol in all the incubation mixtures, including the blank group, was […]. […] The determined metabolic substrates were used for calculating the relative enzyme activity (Erel) by the following formula: Erel (%) = Ci(n)/Ci(0) × 100%, in which Ci(n) was the determined metabolic substrates in the presence of varying concentrations of DPTM and Ci(0) was the determined metabolic substrates in the absence of DPTM. […]

CYP1A2 mRNA = CYP1A2 mRNA expression in Hep G2 cells (real-time PCR); type: cell-based, human
Method: (§2) The logarithmic growth phase Hep G2 cells were seeded into 12-well plastic plates at a density of […]. After incubation at 37 °C under 5% CO2 for 24 h, the media were then replaced with 1 mL of serial dilutions of the DPTM (4.98, 0.16 and 0.08 mM) in fresh media. When cells were incubated for 2, 4 and 12 h at 37 °C under 5% CO2, the RNA was isolated using the Trizol reagent according to the manufacturer’s protocol. Total RNA (5 μL) was transcribed into cDNA by using the PrimeScript RT reagent Kit (Perfect Real Time). The obtained cDNA (5 μL) was added for 45 cycles of PCR amplification to detect the mRNA expression (the primers and sequences used herein were given in Table 3) using the ABI Villa TM7Dx real-time PCR system (Gaithersburg, USA). Glyceraldehyde-3-phosphate dehydrogenase (GAPDH) was used as reference gene. All reactions were performed in a final volume of 20 μL (10 μL of 2 × SYBR Green Real-time PCR Master Mix, 2 μL of cDNA and 2 μL of the primers and 6 μL DEPC water) and executed in triplicate.

CYP3A4 mRNA = CYP3A4 mRNA expression in Hep G2 cells (real-time PCR); type: cell-based, human; settings: 2 and 4 h, 4.98, 0.16 and 0.08 mM
Method: as §2

[2] = system: S. typhimurium strains TA97, TA98, TA100, TA102 and TA1535; test: Ames test, overall verdict over five strains; type: cell-based, Salmonella typhimurium; settings: with or without S9, up to 3.98 μmol/plate
From the text: S. typhimurium strains TA97, TA98, TA100, TA102 and TA1535 were stored and maintained as provided in the standard protocol. Each of the strains was checked for their genetic integrity prior to the experiment, and tested for biotin dependence, histidine dependence, biotin and histidine dependence, rfa marker (crystal violet) and presence of the plasmid pKM101 (ampicillin resistance) or pAQ1 (tetracycline resistance). Different strains were used to identify different types of mutations.
The test was carried out at five different concentrations of DPTM. […] Then 1 mL solution was diluted with distilled water by two fold. […] The negative control used in this experiment was 1 mL DMSO which was directly incorporated into 9 mL melted top agar.
The Ames test of DPTM was conducted as described in the literatures[42],[43] with some modifications. Briefly, 1 mL of strain was inoculated into 5 mL of nutrient broth, followed by incubating overnight at 37 °C. The mixture comprised respective strains, drug, negative and positive controls with the S9 for testing in the presence of metabolic activation system. For testing without S9, 1 × phosphate buffer saline (PBS, pH 7.4) replaced the S9 mix. The obtained mixtures were added into the tube, mixed well and incubated at 37 °C for 20 min. […] The results were expressed as the number of revertant colonies per plate. […]

[3] = set-up: method as in PMID 30813235; settings: rats, intravenous administration; cited from earlier work

## C=CC1(C)CC(OC(=O)CSc2nc(N)cc(N)n2)C2(C)C(C)CCC3(CCC(=O)C32)C(C)C1O (centres unmarked) [DPTM, 14-O-[(4,6-Diaminopyrimidine-2-yl)thioacetyl] mutilin]
[1]
  viability at 24 h, 4.98 mM: 79%
Hep G2 cells
  IC50: 10 ± 2 mM
CYP3A
  IC50 at 15 min: 0.01 ± 0.002 mM
CYP1A2 mRNA; 2 and 4 h, 4.98, 0.16 and 0.08 mM
  CYP1A2 mRNA expression versus control: significantly increase
CYP1A2 mRNA; 12 h
  CYP1A2 mRNA expression versus control: significantly lowered
CYP3A4 mRNA
  CYP3A4 mRNA expression versus control: significantly increase
[2]
  mutagenicity verdict (Ames test): should not be considered as a mutagen
[3]
  half-life (t1/2): 1.7 to 1.9 h
